Measurements from article PMC3207847, “Characterization of a Novel Type of HIV-1 Particle Assembly Inhibitor Using a Quantitative Luciferase-Vpr Packaging-Based Assay” (PLoS ONE, 2011).
Converted amounts (≈) assume the structure as drawn. Read-outs that look alike come from different tables or passages of the source.

Columns and labels:
MTT cytotoxicity assay = type: cell-based, Spodoptera frugiperda; conditions: Spodoptera frugiperda, MTT assay, mean
Protocol: (§1) The cellular toxicity of the different compounds was evaluated using the MTT assays. […] The selectivity index (SI) was defined as the CC50 to IC50 ratio.

Sf9 cells = experiment: MTT cytotoxicity assay; type: cell-based, Spodoptera frugiperda
Protocol: as §1

HIV-1 VLP assembly = experiment: microbe, parasite or virus in culture; conditions: for IC50: Human immunodeficiency virus 1, 24 h; for SI (ratio CC50:IC50): selectivity index
Protocol: Cell culture medium was then harvested at 48 h pi, subjected to the 2-step ultracentrifugation analysis, and each gradient fraction probed for Gag polyprotein and luciferase activity, as above. […] The gradient fractions corresponding to the peak of luciferase activity were pooled, and the VLP contained in these fractions were pelleted, lysed and assayed for luciferase content.
Drug treatment was maintained for a further 24 h, and VLP released in the cell culture medium were pelleted through a sucrose cushion. The amounts of extracellular VLP recovered in the 48 h-pellets obtained in the presence of the different inhibitors were determined using the luciferase assays. After normalization to the luciferase activity determined in the corresponding cell lysates, the values of the ratio of VLP-incorporated to cell-associated luciferase activity were plotted versus the drug concentrations.
Sf9 cell culture supernatants were clarified by low-speed centrifugation, then VLP recovered using a two-step procedure comprising a sucrose-step gradient centrifugation, followed by an ultracentrifugation in linear D2O-sucrose gradient, [53]. (i) In the first step, VLP contained in the cell culture medium were pelleted through a sucrose cushion (20%, w:v, in TNE buffer; TNE: 100 mM NaCl, 10 mM Tris-HCl pH 7.4, 1 mM Na2EDTA) at 30 krpm for 1 h at 15°C in a Kontron TST55.5 rotor [12]. Pelleted VLP of step (i) were then gently resuspended in PBS (0.20–0.25 ml), and (ii) further analyzed by isopycnic ultracentrifugation in sucrose-D2O gradients, [53]. Linear gradients (10-ml total volume, 30–50%, w:v) were centrifuged for 18 h at 28 krpm in a Beckman SW41 rotor. The 50% sucrose solution was made in D2O buffered to pH 7.2 with NaOH, and the 30% sucrose solution was made in 10 mM Tris-HCl, pH 7.2, 150 mM NaCl, 5.7 mM Na2EDTA. Aliquots of 0.5 ml were collected from the top, and fractions analyzed for protein content by SDS-PAGE and immunoblotting, and by luciferase assay as described below.
Aliquots of Sf9 cells (10^6) were infected with two recombinant baculoviruses at equal multiplicity of infection (MOI of 10 PFU/cell, each). One expressed the HIV-1 Gag precursor (AcMNPV-Pr55Gag or control, p6-deleted AcMNPV-GagΔp6), the other the control Vpr protein (AcMNPV-Vpr) or the LucVpr fusion (AcMNPV-LucVpr). […] To avoid any interference with a possible effect of DMSO, DMSO was kept constant in volume in the different samples. […] Cells were harvested at 48 h pi, and extracellular VLP released in the culture medium were quantitated using luciferase assay. Membrane-enveloped VLP were pelleted and resuspended in lysis KDT buffer (KDT: 0.1 M potassium phosphate buffer, pH 7.8, 1 mM DTT, containing 0.2% Triton X100) for 30 min at 37°C with vortexing every 10 min. Luciferase activity associated with VLP was measured as previously described, using a Lumat LB-9501 luminometer (Berthold Technologies, Bad Wildbad, Germany). […] To compensate for eventual negative effects of drugs on LucVpr expression, the luciferase activity was measured in the corresponding cell lysates, obtained after lysis of the pelleted cells with KDT buffer. The results were expressed as relative light units (RLU) per µg protein. The values of the ratio of VLP-associated to intracellular luciferase activity were plotted versus the inhibitor concentration.

[1] = system: HIV-1 VLP assembly and budding; experiment: Electron microscopy of AcMNPV-Gag-infected Sf9 cells and released particles; type: cell-based; conditions: 5 and 10 µg/ml for 24 h at 24 h pi
Protocol: By contrast, control, untreated AcMNPV-Gag-infected Sf9 cells were decorated with VLP budding in abundance from the plasma membrane ( Fig. 8 , a; and also refer to [12], [28], [30], [32], [33], [53]).
Baculovirus-infected Sf9 cells were harvested at 48 h pi, pelleted, fixed with 2.5% glutaraldehyde in 0.1 M phosphate buffer, pH 7.5, post-fixed with osmium tetroxide (2% in H2O) and treated with 0.5% tannic acid solution in H2O. The specimens were dehydrated and embedded in Epon (Epon-812; Fulham, Latham, NY). Ultrathin sections were stained with 2.6% alkaline lead citrate and 0.5% uranyl acetate in 50% ethanol, and post-stained with 0.5% uranyl acetate solution in H2O [12], [28], [53]. Grids were examined under a Jeol JEM-1400 electron microscope, equiped with an ORIUS™ digitalized camera (Gatan France, 78113-Grandchamp). For statistical EM analyses, a minimum of 30 grid squares containing 10 to 20 cell sections each were examined for counting VLP budding at the cell surface, or budding in intracellular vesicular compartment.

[2] = system: HIV-1 VLP assembly and budding; conditions: cited from earlier work
[3] = system: HIV-1 VLP assembly and budding; conditions: 10 µg/ml (17 µM); AcMNPV-Gag-infected Sf9 cells; cited from earlier work
HIV-1 = conditions: read-out: mean IC50, maturation cleavage of CAp24-SP1 / virus infectivity; cited from earlier work
[4] = read-out: IC50 (µM), 50% inhibitory activity on VLP assembly, Sf9 cells coexpressing Pr55Gag and LucVpr, drug added at 24 h pi for 24 h, mean
[5] = read-out: IC50 (µg/ml), 50% inhibitory activity on VLP assembly, Sf9 cells coexpressing Pr55Gag and LucVpr, drug added at 24 h pi for 24 h, mean ± SEM, n = 4

Row | Structure (SMILES) | CC50 (MTT cytotoxicity assay; Sf9 cells) | IC50 (HIV-1 VLP assembly; [4]) | IC50 (HIV-1 VLP assembly; [5]) | SI (ratio CC50:IC50) (HIV-1 VLP assembly) | further results
1 | C=C(C)[C@@H]1CC[C@]2(C(=O)NCCC(=O)O)CC[C@]3(C)C(CCC4[C@@]5(C)CC[C@H](OC(=O)CC(C)(C)C(=O)O)C(C)(C)C5CC[C@]43C)C12 (stereo partly drawn) [EP-48, beta-alanine-conjugated DSB] | 4.2 µM |  |  |  | Cytotoxic effect (in words) (Sf9 cells): pronounced cytotoxic effect; Effect on VLP assembly (in words) (HIV-1 VLP assembly): no specific effect on VLP assembly
2 | C=C(C)[C@@H]1CC[C@]2(C(=O)NC(CCCCNC(=O)OC(C)(C)C)C(=O)O)CC[C@]3(C)C(CCC4[C@@]5(C)CC[C@H](OC(=O)CC(C)(C)C(=O)O)C(C)(C)C5CC[C@]43C)C12 (some centres unmarked) [EP-47, ε-N-tert-butoxycarbonyl-lysine-conjugated DSB] | 24.7 µM | 1.9 µM | 1 to 2 µg/mL | 13.0 | IC50 (µg/ml), 50% inhibitory activity on VLP assembly (HIV-1 VLP assembly; Sf9 cells coexpressing Pr55Gag and LucVpr, drug added at 24 h pi for 24 h, mean ± SEM, n = 4): 1.6 ± 0.5 µg/mL (≈ 1.97 µM); Effect on VLP assembly and budding (EM pattern) [1]: net inhibitory effect on VLP assembly and budding
3 | C=C(C)[C@@H]1CC[C@]2(C(=O)O)CC[C@]3(C)[C@H](CC[C@@H]4[C@@]5(C)CC[C@H](OC(=O)CC(C)(C)C(=O)O)C(C)(C)[C@@H]5CC[C@]43C)[C@@H]12 [PA-457, 3-O-(3',3'-dimethylsuccinyl)-betulinic acid] |  |  |  |  | IC50 ([2]; immuno-radiochemical assay of VLP): 8 to 10 µM; IC50 on assembly and budding of HIV-1 VLP ([2]; insect cells expressing Pr55Gag, previous study ref 12): 5 to 6 µg/mL; Effect on VLP budding and egress [3]: totally abolished VLP budding and egress
4 | C=C(C)[C@@H]1CC[C@]2(C(=O)O)CC[C@]3(C)[C@H](CC[C@@H]4[C@@]5(C)CC[C@H](O)C(C)(C)[C@@H]5CC[C@]43C)[C@@H]12 [BA, betulinic acid, reference compound] |  | 39.4 µM | 18 ± 3 µg/mL | 1.1 | CC50 (MTT cytotoxicity assay): 43.8 µM
5 | C=C(C)[C@@H]1CC[C@]2(C(=O)NC(CCCCN)C(=O)O)CC[C@]3(C)C(CCC4[C@@]5(C)CC[C@H](OC(=O)CC(C)(C)C(=O)O)C(C)(C)C5CC[C@]43C)C12 (some centres unmarked) [EP-62, lysine-conjugated DSB with free lysine ε-NH2 group] | 3.5 µM | 4.8 µM | 3.4 ± 0.4 µg/mL | 0.7 | Cytotoxic effect (in words) (Sf9 cells): pronounced cytotoxic effect; Effect on VLP assembly (in words) (HIV-1 VLP assembly): no specific effect on VLP assembly
6 | C=C(C)[C@@H]1CC[C@]2(C(=O)NCCN)CC[C@]3(C)C(CCC4[C@@]5(C)CC[C@H](OC(=O)CC(C)(C)C(=O)O)C(C)(C)C5CC[C@]43C)C12 (some centres unmarked) [EP-39, ethylene diamine-conjugated DSB] | 120 µM |  |  |  | IC50 (HIV-1): 0.016 µM
7 | C=C(C)[C@@H]1CC[C@]2(C(=O)NCC(=O)O)CC[C@]3(C)C(CCC4[C@@]5(C)CC[C@H](OC(=O)CC(C)(C)C(=O)O)C(C)(C)C5CC[C@]43C)C12 (some centres unmarked) [ST-327, Glycine-conjugated DSB] | 31.1 µM | 5.9 µM | 3.8 ± 1.6 µg/mL | 5.3 | Effect on VLP assembly and budding (EM pattern) [1]: net inhibitory effect on VLP assembly and budding
